The values below come from PubChem BioAssay (NCI).

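Compound exposure: 48 hours, 5 concentrations, 96-well plates. Abbreviation: GI50, concentration required for 50% inhibition of growth. TGI: concentration producing complete growth inhibition.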

Among the test systems are UO-31 renal; SR leukemia; A549 NSCLC; SF-539 CNS; OVCAR-5 ovarian; MCF7 breast; OVCAR-8 ovarian; HOP-92 NSCLC; 786-0 renal; EKVX NSCLC.
Common to all, as to experiment: NCI tumour cell line growth inhibition, 48 h

As for `CCCCCCCCCCCCCOC(=O)c1c(C)[nH]c(/C=C2\N=C(c3ccc[nH]3)C=C2OC)c1C`, the GI50 is 0.103 µM with UO-31 renal; less than 0.0118 µM in the experiment with SR leukemia; 0.0419 µM with A549 NSCLC; 0.182 µM in the experiment with SF-539 CNS; 0.0929 µM in the experiment with OVCAR-5 ovarian; 0.0248 µM in the experiment on MCF7 breast. For the same molecule, the values for the GI50 in the experiment on OVCAR-8 ovarian, with HOP-92 NSCLC and in the experiment on 786-0 renal were 0.0454 µM, 0.0698 µM and 0.161 µM, respectively. Besides, the TGI in the experiment on UO-31 renal is 0.443 µM; in the experiment on SR leukemia it was 0.145 µM; in the experiment with A549 NSCLC, 0.505 µM; in the experiment with SF-539 CNS, greater than 26.9 µM; in the experiment with OVCAR-5 ovarian, greater than 100 µM; in the experiment on MCF7 breast, greater than 100 µM. For the same molecule, the figures for the TGI in the experiment with HOP-92 NSCLC and with 786-0 renal were 0.497 µM and 12.7 µM, respectively.

For `Oc1c(Br)cc(Br)cc1CN(Cc1cc(Br)cc(Br)c1O)C1CCCCC1`, the TGI with UO-31 renal was greater than 100 µM; in the experiment with SR leukemia, greater than 100 µM; with A549 NSCLC, greater than 100 µM; with EKVX NSCLC, 92.5 µM; in the experiment with OVCAR-5 ovarian it was greater than 100 µM; in the experiment with MCF7 breast, 65 µM. The TGI with OVCAR-8 ovarian, with HOP-92 NSCLC and with 786-0 renal was greater than 100 µM throughout.

For the molecule `CCC1CCc2nc3sc(C(=O)Nc4ccccc4F)c(N)c3cc2C1` (stereo unspecified), the GI50 with UO-31 renal was greater than 100 µM; with SR leukemia, 0.284 µM; in the experiment with A549 NSCLC, greater than 100 µM; in the experiment on OVCAR-5 ovarian, 22.8 µM; with MCF7 breast, 0.318 µM; in the experiment with OVCAR-8 ovarian, greater than 100 µM. Besides, the GI50 is 4 µM in the experiment with HOP-92 NSCLC and 41.7 µM in the experiment on 786-0 renal. Further, the TGI with UO-31 renal was greater than 100 µM; in the experiment with SR leukemia, 38.1 µM; with A549 NSCLC it was greater than 100 µM; with SF-539 CNS, greater than 100 µM; in the experiment on OVCAR-5 ovarian, greater than 100 µM; in the experiment with MCF7 breast it was greater than 100 µM. Also, the TGI in the experiment on OVCAR-8 ovarian, in the experiment on HOP-92 NSCLC and in the experiment with 786-0 renal was greater than 100 µM throughout.

Regarding `COc1ccc(OC)c(/C=C/c2nnc(Nc3ccc(Cl)cc3)o2)c1`, the GI50 in the experiment with UO-31 renal is 3.13 µM; in the experiment with SR leukemia it was 48.2 µM; with A549 NSCLC it was 3.67 µM; with EKVX NSCLC, 40.5 µM; with SF-539 CNS it was 11.8 µM; in the experiment with OVCAR-5 ovarian, 32.5 µM. Moreover, the GI50 in the experiment on MCF7 breast was 20.7 µM; in the experiment with OVCAR-8 ovarian, 4.91 µM; in the experiment with 786-0 renal, 2.67 µM. Also, the TGI was 12.6 µM in the experiment with UO-31 renal; greater than 100 µM in the experiment with SR leukemia; 17.8 µM in the experiment on A549 NSCLC; greater than 100 µM with EKVX NSCLC; 60.5 µM in the experiment on SF-539 CNS; greater than 100 µM in the experiment with OVCAR-5 ovarian. In addition, the TGI in the experiment with MCF7 breast is greater than 100 µM; in the experiment on OVCAR-8 ovarian, 21 µM; with 786-0 renal, 7.6 µM.

As to `CC[C@H](C)c1occ2c(O)c(C(=O)O)c(=O)cc-2c1C`, the TGI is 53.5 µM in the experiment with SR leukemia; greater than 100 µM in the experiment with A549 NSCLC; greater than 100 µM with EKVX NSCLC; 46.3 µM with SF-539 CNS; 36.7 µM in the experiment with OVCAR-5 ovarian; greater than 100 µM in the experiment on MCF7 breast. Further, the TGI with OVCAR-8 ovarian is 41.4 µM; with HOP-92 NSCLC, 49.6 µM; in the experiment with 786-0 renal, greater than 100 µM.

`COc1cc2[nH]c(C(=O)c3cc(OC)c(OC)c(OC)c3)c(N)c2cc1C#CCO`: the GI50 in the experiment with UO-31 renal is 0.476 µM; in the experiment with SR leukemia it was 0.284 µM; in the experiment on A549 NSCLC, 0.969 µM; in the experiment on SF-539 CNS it was 0.138 µM; in the experiment on OVCAR-5 ovarian, 3.63 µM; in the experiment with MCF7 breast it was 0.0886 µM. Besides, the GI50 in the experiment with OVCAR-8 ovarian is 0.533 µM; in the experiment on HOP-92 NSCLC, 0.0862 µM; with 786-0 renal it was 0.373 µM. Moreover, the TGI was 59 µM with UO-31 renal; 19.8 µM in the experiment with SR leukemia; greater than 100 µM in the experiment on A549 NSCLC; 0.491 µM in the experiment on SF-539 CNS; greater than 100 µM in the experiment on OVCAR-5 ovarian; greater than 100 µM with MCF7 breast. The TGI was greater than 100 µM with OVCAR-8 ovarian, 90.7 µM with HOP-92 NSCLC and greater than 100 µM in the experiment on 786-0 renal.

With `C=C1C(=O)O[C@@H]2[C@H]1CC[C@H](C)[C@]1(O)CCC(=O)[C@@]21C`, the TGI in the experiment on UO-31 renal was 4.76 µM; with SR leukemia it was greater than 10 µM; in the experiment on A549 NSCLC it was greater than 10 µM; with EKVX NSCLC it was greater than 10 µM; in the experiment on SF-539 CNS, greater than 10 µM; with MCF7 breast, greater than 10 µM. Besides, the TGI in the experiment on OVCAR-8 ovarian, in the experiment with HOP-92 NSCLC and with 786-0 renal was greater than 10 µM in each case.

Turning to `O=C1C2CC3C(CC2C(=O)[N]1[Sn]([c]1ccccc1)([c]1ccccc1)[c]1ccccc1)C1(Cl)C(Cl)=C(Cl)C3(Cl)C1(Cl)Cl` (stereo unspecified), the GI50 in the experiment on UO-31 renal is 0.0743 µM; with SR leukemia, 0.102 µM; in the experiment on A549 NSCLC, 0.14 µM; in the experiment on SF-539 CNS it was 0.179 µM; in the experiment on OVCAR-5 ovarian, 0.151 µM; with MCF7 breast, 0.0376 µM. Also, the GI50 was 0.155 µM with OVCAR-8 ovarian, 0.0529 µM with HOP-92 NSCLC and 0.157 µM in the experiment with 786-0 renal. The TGI with UO-31 renal was 0.212 µM; in the experiment on SR leukemia, 0.532 µM; in the experiment with A549 NSCLC, 0.347 µM; in the experiment on SF-539 CNS it was 0.369 µM; with OVCAR-5 ovarian it was 0.317 µM; in the experiment with MCF7 breast it was 0.154 µM. The values for the TGI with OVCAR-8 ovarian, with HOP-92 NSCLC and in the experiment with 786-0 renal were 0.375 µM, 0.221 µM and 0.336 µM, respectively.

In the case of `CC(C)(Cl)CCC1=C(Cl)C(=O)c2ccccc2C1=O`, the GI50 in the experiment on UO-31 renal is 1.59 µM; in the experiment on SR leukemia it was 2.04 µM; in the experiment on A549 NSCLC, 3.2 µM; in the experiment on SF-539 CNS it was 2.01 µM; in the experiment with OVCAR-5 ovarian, 2.25 µM; in the experiment on MCF7 breast, 1.99 µM. The figures for the GI50 with OVCAR-8 ovarian and in the experiment on 786-0 renal were 2.03 µM and 3.41 µM, respectively. Moreover, the TGI was determined as 3.15 µM in the experiment on UO-31 renal; 5.69 µM with SR leukemia; 11 µM in the experiment with A549 NSCLC; 4.58 µM with SF-539 CNS; 5.6 µM in the experiment with OVCAR-5 ovarian; 4.05 µM in the experiment with MCF7 breast. Further, the TGI in the experiment with OVCAR-8 ovarian came to 5.03 µM; with 786-0 renal, 10.7 µM.
